Results on 13 compounds are retold here after US11986532B2 (Arvinas Operations, Inc., priority 2021, dated 2024).

Each structure is given as a SMILES string. Where only a bound is given, the exact number is not on record here.

The assay addresses T1, BCL6 (Homo sapiens, UniProt P41182).
T1 construct: endogenous in cells; host or cells: T47D breast cancer epithelial cells
Kind of assay: Immunofluorescence protocol for high content imaging of BCL6 (degradation) in T47D cells, 3 days compound treatment. Particulars: T47D cells, 3 days compound treatment; for DC50: read-out: Mean DC50 (nM)* category; for Dmax: read-out: Mean Dmax (%)** category. The format is cell-based. The protocol: Immunofluorescence Protocol for High Content Imaging of BCL6
T47D cells were seeded in 100 μl volume of RPMI1640-10% FBS in a 96-well black/clear bottom plates for adherent lines (Corning #3904).
Day 1. T47D breast cancer epithelial cells were seeded at a density so that confluence is ˜70-90% at endpoint. Cells were seeded at 7K/0.1 ml/well the morning prior to the addition of exemplary bifunctional degradation compounds.
Day 2. Prepare an 11 point 3-fold serial dilution of exemplary bifunctional compound in DMSO and aliquot an appropriate volume to cell growth media to generate a 2× final concentration of exemplary bifunctional compound. Add an equal volume (0.1 ml) of 2× exemplary bifunctional compound/media mix to previously plated cells, for a final top concentration in aqueous cell growth media of 0.1 or 1 μM. Incubate for 3 days at 37° C., 5% CO2.
Day 5 Immunofluorescence. Discard cell media. Wash wells with 200 μl of room temperature phosphate-buffered saline (PBS). Prepared 4% paraformaldehyde (PFA) from 16% PFA (Electron Microscopy Sciences #15710) using 1×PBS. Fifty μl of 4% PF was added to each well and incubate for 15 minutes at room temperature to fix the cells. The PFA was aspirated and the cells washed twice with PBS (200 μl)).
Prepared 0.1% Triton X-100 in PBS using 10% triton X-100 stock. The cells were permeabilized by adding 100 ul of the 0.1% Triton X-100 in PBS to each well to permeabilize cells and incubating at room temperature for 15 minutes. Cells were washed twice with PBS.
Prepared 3% BSA/PBS (from Thermofisher #37515 Blocker BSA in TBS, 10%), and 100 ul was added to each well. The cells were incubated for at least 1 hour at room temperature.
Prepared 1% BSA/PBS using Blocker BSA/PBS, and the 3% BSA/PBS removed from the wells.
For no primary antibody controls, 50 μl 1% BSA/PBS was added.
Primary antibody (BCL6 Rb Ab, CST-14895, Cell Signaling) was diluted 1:300 in 1% BSA/PBS using Blocker BSA/PBS.
Fifty μl of primary antibody added to all remaining wells (i.e., all wells other than the primary antibody controls) and the cells were incubated overnight at 4° C. with slow orbital movement.
Day 6. Contents of the wells was removed and the cells washed four times with 200 ul PBS. 1% BSA/PBS was prepared using Blocker BSA in PBS.
Diluted secondary antibody goat anti-Rb IgG Alexa-488 1:1000, and cell mask-Alexa-647 1:3000 in 1% BSA/PBS in the same mix. Add 50 μl to each well and incubate at room temperature for 1 hour in the dark.
Cells were washed three times with 200 ul PBS, and then incubated for 10 minutes with 100 ul Hoechst dye at 1 μg/mL (20 mM stock) to stain cell nuclei. Wells were then washed with 200 μl PBS, and 100 ul of PBS was added to each well and the plate covered plate with a plastic opaque cover. Plates were stored at 4° C. and covered in aluminum foil until imaged.
Plates were equilibrated to room temperature prior to reading. The bottom of the plate was wiped with 70% isopropanol immediately prior to imaging.
10×, 4 fields/well, include Top hat smoothing in the analysis protocol.
16% paraformaldehyde: Electron Microscopy Sciences #15710
Hoechst: Thermofisher #62249
Blocker BSA in PBS, 10%: Thermofisher #37515
Blocker BSA in TBS, 10%: Thermofisher #37520
Goat anti-rabbit or mouse AlexaFluor-488: Thermofisher #A11008
Cell mask deep red AlexaFluor-647: Thermofisher #C10046
Wash buffer, PBS: 20×PBS, Thermofisher

For orientation: DC50 means the midpoint of the concentration-degradation curve. The Dmax is the greatest extent of degradation seen. Regarding `CNC(=O)COc1cc2cc(Nc3nc(N4CCN(CC5CC6(CCN(c7ccc8c(c7)CN(C7CCC(=O)NC7=O)C8=O)CC6)C5)CC4)ncc3Cl)ccc2n(C(C)C)c1=O` (stereo not shown) [Compound 6, 2-{[6-({5-chloro-2-[4-({7-[2-(2,6-dioxopiperidin-3-yl)-1-oxo-2,3-dihydro-1H-isoindol-5-yl]-7-azaspiro[3.5]nonan-2-yl}methyl)piperazin-1-yl]pyrimidin-4-yl}amino)-2-oxo-1-(propan-2-yl)-1,2-dihydroquinolin-3-yl]oxy}-N-methylacetamide], the DC50 was less than 10 nM and the Dmax lay within 50 to 70%.

`CNC(=O)COc1cc2cc(Nc3nc(N4CCN(CC5CC6(CCN(c7cccc8c7CN(C7CCC(=O)NC7=O)C8=O)CC6)C5)CC4)ncc3Cl)ccc2n(C(C)C)c1=O` (stereo not shown) [Compound 7, 2-{[6-({5-chloro-2-[4-({7-[2-(2,6-dioxopiperidin-3-yl)-1-oxo-2,3-dihydro-1H-isoindol-4-yl]-7-azaspiro[3.5]nonan-2-yl}methyl)piperazin-1-yl]pyrimidin-4-yl}amino)-2-oxo-1-(propan-2-yl)-1,2-dihydroquinolin-3-yl]oxy}-N-methylacetamide]: the 50% degradation concentration (DC50) was less than 10 nM and the Dmax was no less than 70%.

As for `CNC(=O)COc1cc2cc(Nc3nc(N4CCC(C(C)(C)N5CC6(CCN(c7cccc8c7CN(C7CCC(=O)NC7=O)C8=O)CC6)C5)CC4)ncc3Cl)ccc2n(C(C)C)c1=O` (stereo not shown) [Compound 8, 2-{[6-({5-chloro-2-[4-(2-{7-[2-(2,6-dioxopiperidin-3-yl)-1-oxo-2,3-dihydro-1H-isoindol-4-yl]-2,7-diazaspiro[3.5]nonan-2-yl}propan-2-yl)piperidin-1-yl]pyrimidin-4-yl}amino)-2-oxo-1-(propan-2-yl)-1,2-dihydroquinolin-3-yl]oxy}-N-methylacetamide], the DC50 is less than 10 nM and the Dmax was no less than 70%.

As for `CNC(=O)COc1cc2cc(Nc3nc(N4CCN(CC5CCC6(CC5)CN(c5c(OC)ccc7c5C(=O)N(C5CCC(=O)NC5=O)C7=O)C6)CC4)ncc3Cl)ccc2n(C(C)C)c1=O` (stereo not shown) [Compound 9, 2-{[6-({5-chloro-2-[4-({2-[2-(2,6-dioxopiperidin-3-yl)-5-methoxy-1,3-dioxo-2,3-dihydro-1H-isoindol-4-yl]-2-azaspiro[3.5]nonan-7-yl}methyl)piperazin-1-yl]pyrimidin-4-yl}amino)-2-oxo-1-(propan-2-yl)-1,2-dihydroquinolin-3-yl]oxy}-N-methylacetamide], the DC50 was less than 10 nM and the Dmax was less than 50%.

With `CNC(=O)COc1cc2cc(Nc3nc(N4CCN(CC5CCC6(CC5)CN(c5cc(OC)cc7c5C(=O)N(C5CCC(=O)NC5=O)C7=O)C6)CC4)ncc3Cl)ccc2n(C(C)C)c1=O` (stereo not shown) [Compound 10, 2-{[6-({5-chloro-2-[4-({2-[2-(2,6-dioxopiperidin-3-yl)-6-methoxy-1,3-dioxo-2,3-dihydro-1H-isoindol-4-yl]-2-azaspiro[3.5]nonan-7-yl}methyl)piperazin-1-yl]pyrimidin-4-yl}amino)-2-oxo-1-(propan-2-yl)-1,2-dihydroquinolin-3-yl]oxy}-N-methylacetamide], the DC50 lay in the range of 10 to 50 nM and the greatest degradation seen (Dmax) was 50 to 70%.

As for `CNC(=O)COc1cc2cc(Nc3nc(N4CCC5(CCN(CC6CCN(c7cccc8c7C(=O)N(C7CCC(=O)NC7=O)C8=O)CC6)C5)C4)ncc3Cl)ccc2n(C(C)C)c1=O` (stereo not shown) [Compound 11], the DC50 was 10 to 50 nM and the Dmax was no less than 70%.

For `CNC(=O)COc1cc2cc(Nc3nc(N4CCC5(CCN(CC6CCN(c7cccc8c7CN(C7CCC(=O)NC7=O)C8=O)CC6)C5)C4)ncc3Cl)ccc2n(C(C)C)c1=O` (stereo not shown) [Compound 12, 2-{[6-({5-chloro-2-[7-({1-[2-(2,6-dioxopiperidin-3-yl)-1-oxo-2,3-dihydro-1H-isoindol-4-yl]piperidin-4-yl}methyl)-2,7-diazaspiro[4.4]nonan-2-yl]pyrimidin-4-yl}amino)-2-oxo-1-(propan-2-yl)-1,2-dihydroquinolin-3-yl]oxy}-N-methylacetamide], the DC50 is less than 10 nM and the Dmax lay within 50 to 70%.

Turning to `CNC(=O)COc1cc2cc(Nc3nc(N4CCN(C(C)(C)C5CCN(c6ccc7c(c6)CN(C6CCC(=O)NC6=O)C7=O)CC5)CC4)ncc3Cl)ccc2n(C(C)C)c1=O` (stereo not shown) [Compound 13, 2-{[6-({5-chloro-2-[4-(2-{1-[2-(2,6-dioxopiperidin-3-yl)-1-oxo-2,3-dihydro-1H-isoindol-5-yl]piperidin-4-yl}propan-2-yl)piperazin-1-yl]pyrimidin-4-yl}amino)-2-oxo-1-(propan-2-yl)-1,2-dihydroquinolin-3-yl]oxy}-N-methylacetamide], the DC50 is less than 10 nM and the Dmax was no less than 70%.

Consider `CNC(=O)COc1cc2cc(Nc3nc(N4CCC5(CC4)CC(CN4CCN(c6cccc7c6CN(C6CCC(=O)NC6=O)C7=O)CC4)C5)ncc3Cl)ccc2n(C(C)C)c1=O` (stereo not shown) [Compound 14, 2-{[6-({5-chloro-2-[2-({4-[2-(2,6-dioxopiperidin-3-yl)-1-oxo-2,3-dihydro-1H-isoindol-4-yl]piperazin-1-yl}methyl)-7-azaspiro[3.5]nonan-7-yl]pyrimidin-4-yl}amino)-2-oxo-1-(propan-2-yl)-1,2-dihydroquinolin-3-yl]oxy}-N-methylacetamide], for which the DC50 was less than 10 nM and the Dmax is no less than 70%.

In the case of `CNC(=O)COc1cc2cc(Nc3nc(N4CCN(CC5CCN(c6cc7c(cc6F)C(=O)N(C6CCC(=O)NC6=O)C7)CC5)CC4)ncc3Cl)ccc2n(C(C)C)c1=O` (stereo not shown) [Compound 15, 2-{[6-({5-chloro-2-[4-({1-[2-(2,6-dioxopiperidin-3-yl)-6-fluoro-1-oxo-2,3-dihydro-1H-isoindol-5-yl]piperidin-4-yl}methyl)piperazin-1-yl]pyrimidin-4-yl}amino)-2-oxo-1-(propan-2-yl)-1,2-dihydroquinolin-3-yl]oxy}-N-methylacetamide], the DC50 was less than 10 nM and the Dmax fell in the range of 50 to 70%.

On to `CNC(=O)COc1cc2cc(Nc3nc(N4CCOC5(CN(CCC6CCN(c7cccc8c7C(=O)N(C7CCC(=O)NC7=O)C8=O)CC6)C5)C4)ncc3Cl)ccc2n(C(C)C)c1=O` (stereo not shown) [Compound 16], for which the 50% degradation concentration (DC50) is no less than 100 nM.

With `CNC(=O)COc1cc2cc(Nc3nc(N4CCC(F)(CN5CCC6(CCN(c7ccc8c(c7)CN(C7CCC(=O)NC7=O)C8=O)C6)C5)CC4)ncc3Cl)ccc2n(C(C)C)c1=O` (stereo not shown) [Compound 17, 2-{[6-({5-chloro-2-[4-({7-[2-(2,6-dioxopiperidin-3-yl)-1-oxo-2,3-dihydro-1H-isoindol-5-yl]-2,7-diazaspiro[4.4]nonan-2-yl}methyl)-4-fluoropiperidin-1-yl]pyrimidin-4-yl}amino)-2-oxo-1-(propan-2-yl)-1,2-dihydroquinolin-3-yl]oxy}-N-methylacetamide], the half-maximal degradation concentration (DC50) was less than 10 nM and the Dmax was less than 50%.

Turning to `CNC(=O)COc1cc2cc(Nc3nc(N4CCN(CC5CCN(c6cc(F)c7c(c6)CN(C6CCC(=O)NC6=O)C7=O)CC5)CC4)ncc3Cl)ccc2n(C(C)C)c1=O` (stereo not shown) [Compound 18, 2-{[6-({5-chloro-2-[4-({1-[2-(2,6-dioxopiperidin-3-yl)-7-fluoro-1-oxo-2,3-dihydro-1H-isoindol-5-yl]piperidin-4-yl}methyl)piperazin-1-yl]pyrimidin-4-yl}amino)-2-oxo-1-(propan-2-yl)-1,2-dihydroquinolin-3-yl]oxy}-N-methylacetamide], the DC50 was less than 10 nM and the Dmax was in the range of 50 to 70%.
